Where two headings read alike, the source gives them in different places.
Experiments:
Aiolos and Ikaros = Aiolos and Ikaros degradation and re-expression by flow cytometry in H929-1051 and OPM2-P10 cells; format: cell-based, human
Experimental: The cell lines were treated with a single continuous exposure to Compound 2, with no washout, and the levels of Aiolos and Ikaros were measured by flow cytometry. After treatment there was greater than 70% degradation of Aiolos and Ikaros within 3 to 6 hours, depending on the cell line (FIG. 7A and FIG. 7B). The depletion of substrates was sustained for up to 70 hours in H929-1051 cells or up to 100 hours in OPM2-P10 cells (FIG. 7A and FIG. 7B). Increasing the concentration 10-fold to 0.1 μM produced little to no additional degradation (FIG. 7A and FIG. 7B).
The effect of transient exposures of H929-1051 cells to Compound 2 on the degradation of Aiolos and Ikaros was also evaluated. A short transient exposure of 15 minutes at 0.1 μM Compound 2 induced Aiolos and Ikaros degradation (FIG. 8). Although the extent of degradation (25% to 50%) was not complete, a prolonged pharmacodynamic (PD) effect was seen that lasted between 25 and 50 hours post-exposure (FIG. 8).
To further understand the kinetics of Compound 2 exposure and Aiolos and Ikaros degradation, a longer exposure of 6 hours to Compound 2 (0.01 and 0.1 μM), followed by washout was investigated. Treatment with Compound 2 produced greater than 70% degradation of Aiolos and Ikaros (FIG. 9). […] Greater than 75% substrate recovery was seen by 25 hours in cells exposed to 0.01 μM Compound 2 and within 75 to 100 hours in cultures exposed to 0.1 μM Compound 2 (FIG. 9).

interferon gamma (IFN-γ) = experiment: IFN-γ production by TCR-activated healthy PBMCs; format: cell-based, human; conditions: 24 hours
Experimental: (§1) FIG. 21A-FIG. 21C illustrate that Compound 2 is a potent inducer of effector cytokines. […] (FIG. 21A) IL-2, (FIG. 21B) IFN-γ, and (FIG. 21C) TNF-α. Data shown are an average from three or four donors and are represented as fold change over DMSO control; error bars represent standard error of the mean (SEM).
(§2) The immunomodulatory activity of Compound 2 on T cell receptor (TCR)-activated healthy PBMCs was assessed. […] This increased in cytokine secretion was evident as early as 24 hours after introduction of Compound 2 with the peak of the effector cytokine production induced by Compound 2 being 5.5-fold for IL-2, 4.5-fold for interferon gamma (IFN-γ), and 2-fold for tumor necrosis factor alpha (TNF-α) above the vehicle control (FIG. 21A-FIG. 21C, respectively).

OPM2 cells = experiment: cells; format: cell-based, human; conditions: for IC50: Homo sapiens
Experimental: The effect of the stabilizing mutations on cell proliferation was also measured.

[1] = tested on: tumor necrosis factor alpha (TNF-α); experiment: TNF-α production by TCR-activated healthy PBMCs; format: cell-based, human; conditions: 24 hours
Experimental: as §1, §2

[2] = tested on: relapsed and refractory multiple myeloma; experiment: Phase 1 study, response to treatment (IMWG criteria); format: in vivo, human; conditions: subjects with >80% decrease in sBCMA or sFLC
sFLC = experiment: Phase 1 study, serum free light chain (sFLC); format: in vivo, human; conditions: two subjects; during the first cycle of treatment
Source text: This is an open-label, multi-center, international, Phase 1 study to assess the safety, PK/PD and preliminary efficacy of Compound 2 in combination with dexamethasone in subjects with RRMM.
Serum samples were taken before and during Compound 2 treatment at specified time points. Serum free light chain (sFLC) can be used as an efficacy measurement in multiple myeloma. The short half-life of sFLC provides an opportunity to follow the dynamic effect of compound treatment on disease burden. […] The extent of decrease from baseline and duration of the effect may predict response to treatment with Compound 2.

[3] = tested on: Aiolos, Ikaros, and ZFP91; experiment: Phase 1 study, IHC of bone marrow aspirate clots; format: in vivo, human; conditions: before and during treatment (Cycle 1)
Source text: FIG. 26A-FIG. 26E illustrate that the effect of Compound 2 on biomarker expression in CD138+ plasma cells from relapsed/refractory multiple myeloma patients. (FIG. 26A) Aiolos, (FIG. 26B) Ikaros, (FIG. 26C) ZFP91, (FIG. 26D) c-Myc, and (FIG. 26E) IRF4.
Bone marrow aspirate samples were taken before and during Compound 2 treatment (Cycle 1). Clots were made from each sample and processed into formalin fixed paraffin embedded blocks. Immunohistochemistry (IHC) assays were used to evaluate the biomarker expression. IHC scores were determined based on percent and intensity of positive staining.

[4] = continuous exposure, OPM2-P10 cells

N#Cc1ccc(N2CCN(Cc3ccc(COc4cccc5c4CN([C@H]4CCC(=O)NC4=O)C5=O)cc3)CC2)c(F)c1 [Compound 2, (S)-4-(4-(4-(((2-(2,6-dioxopiperidin-3-yl)-1-oxoisoindolin-4-yl)oxy)methyl)benzyl)piperazin-1-yl)-3-fluorobenzonitrile]
degradation of Aiolos and Ikaros (Aiolos and Ikaros; 6 hours exposure (0.01 and 0.1 μM) followed by washout): greater than 70% | duration of sustained depletion of substrates (Aiolos and Ikaros; continuous exposure, H929-1051 cells): up to 70 hours | duration of sustained degradation of both proteins (Aiolos and Ikaros) (Aiolos and Ikaros; [4]): more than 150 hours | duration of sustained depletion of substrates (Aiolos and Ikaros; [4]): up to 100 hours | degradation of Aiolos and Ikaros (Aiolos and Ikaros; single continuous exposure, no washout, H929-1051 and OPM2-P10): greater than 70% | peak IFN-γ production above the vehicle control (interferon gamma (IFN-γ)): 4.5 fold | IC50 (OPM2 cells; OPM-2, cells overexpressing stabilized Ikaros mutants (Ikaros-Q146H or Ikaros-G151A), read-out: concentration at which cells had their proliferation inhibited by 50%): > 100000 pM | IC50 (OPM2 cells; OPM-2, overexpressing Aiolos Q147H, read-out: Inhibition of Proliferation of OPM2 Cells IC50): 60 pM | IC50 (OPM2 cells; OPM-2, overexpressing Aiolos, read-out: Inhibition of Proliferation of OPM2 Cells IC50): 80 pM | IC50 (OPM2 cells; OPM-2, overexpressing Ikaros-G151A, read-out: Inhibition of Proliferation of OPM2 Cells IC50): > 100000 pM | IC50 (OPM2 cells; OPM-2, overexpressing Ikaros-Q146H, read-out: Inhibition of Proliferation of OPM2 Cells IC50): > 100000 pM | IC50 (OPM2 cells; OPM-2, overexpressing Ikaros, read-out: Inhibition of Proliferation of OPM2 Cells IC50): 130 pM | IC50 (OPM2 cells; OPM-2, overexpressing ZFP91-Q400H, read-out: Inhibition of Proliferation of OPM2 Cells IC50): 80 pM | increase of the 50% inhibitory concentration relative to the parental cells (OPM2 cells; cells overexpressing stabilized Ikaros mutants): more than 200 fold | peak TNF-α production above the vehicle control [1]: 2 fold | response to treatment [2]: VGPR and PR | decrease in sFLC (sFLC): > 80% | biomarker expression in the tumor compartment (IHC) [3]: induced degradation of Aiolos, Ikaros, and ZFP91

From US12510533B2, “Methods for treating multiple myeloma and the use of companion biomarkers for 4-(4-(4-(((2-(2,6-dioxopiperidin-3-yl)-1-oxoisoindolin-4-yl)oxy)methyl)benzyl)piperazin-1-yl)-3-fluorobenzonitrile” (Celgene Corporation, priority 2018, dated 2025)
